Earlier results on 17 compounds are cited in patent publication EP3357492B1, “MULTILAYER TABLET FOR ADMINISTRATION OF MAGNESIUM” (S.I.I.T. S.r.l.-Servizio Internazionale Imballaggi …, priority 2017, dated 2018).

Conditions in the first data set: not given
On to `[Mg+2].[OH-].[OH-]` [Hydroxide, Magnesium hydroxide], for which the “pH (1% in water solution)” value is reported as 10.5. As for `O=C1CC[C@@H](C(=O)[O-])N1.O=C1CC[C@@H](C(=O)[O-])N1.[Mg+2]` [Pidolate], the “pH (1% in water solution)” value is reported as 6. In the case of `O.O.O=C1O[C@H]([C@@H](O)CO)C([O-])=C1O.O=C1O[C@H]([C@@H](O)CO)C([O-])=C1O.[Mg+2]` [Ascorbate 2 hydrate], the “pH (1% in water solution)” value is given as 7. For the compound `O=C(O)CC(O)(CC(=O)O)C(=O)O` [Citrate], the “pH (1% in water solution)” value is recorded as 4.

For the compound Phosphate, the “pH (1% in water solution)” value is on record as 6. For `O.O.O.O.O.O=P([O-])([O-])[O-].O=P([O-])([O-])[O-].[Mg+2].[Mg+2].[Mg+2]` [Phosphate 5 hydrate], the “pH (1% in water solution)” value was 8. Turning to `O.O.O.O.O.O.[Cl-].[Cl-].[Mg+2]` [Chloride 6 hydrate], the “pH (1% in water solution)” value is recorded as 5. As to `O=C([O-])CC(O)(CC(=O)[O-])C(=O)[O-].O=C([O-])CC(O)(CC(=O)[O-])C(=O)[O-].[Mg+2].[Mg+2].[Mg+2]` [Dicitrate], the “pH (1% in water solution)” value is reported as 9. On to `[O]=[Mg]` [Oxide, Magnesium oxide], for which the “pH (1% in water solution)” value is 10.5. On to Glycerophosphate, for which the “pH (1% in water solution)” value was 7. In the case of `O=C([O-])[O-].[Na+].[Na+]` [Carbonate], the “pH (1% in water solution)” value is 10. With `CCC(=O)O` [Propionate], the “pH (1% in water solution)” value was 10. On to Lactate, for which the “pH (1% in water solution)” value was 7. Turning to Fumarate, the “pH (1% in water solution)” value was 7.

Gluconate: the “pH (1% in water solution)” value was 7. For `O=C([O-])CC(O)(CC(=O)[O-])C(=O)[O-].[K+].[K+].[K+]` [Potassium citrate], the “pH (1% in water solution)” value is 7.5.

On to `N[C@@H](CC(=O)O)C(=O)[O-].N[C@@H](CC(=O)O)C(=O)[O-].O.O.O.O.[Mg+2]` [Aspartate 4 hydrate], for which the “pH (1% in water solution)” value is given as 7.

For the next data set the following is noted: in water.
In the case of Phosphate, the “Solubility (g/100 g water)” value is reported as 40-50 g/100 g water. Regarding `[O]=[Mg]` [Oxide, Magnesium oxide], the “Solubility (g/100 g water)” value is recorded as under 1 g/100 g water. Turning to Glycerophosphate, the “Solubility (g/100 g water)” value is on record as 4 g/100 g water.
